According to PubChem BioAssay AID1963835 (Molecular Pharmacology Branch, DTP, NCI, 2024):

Tested on: 699152-130-R-J1-PDC complex spheroid viability
Test: Anticancer human tumor 699152-130-R-J1-PDC patient-derived pancreatic carcinoma cell line growth inhibition [POLQ]
Conditions: for IC50: curve of first compound; for viability, T/C: stronger effect = lower value
In short: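 Complex spheroid viability model combining PDC tumour cells with endothelial (HUVEC) and MSC stromal cells. Novobiocin, ART-558 or RP6685 were tested singly and in combination with standard and investigational anticancer drugs. Each was titrated in half-log steps from near clinical Cmax, or from 10 microM where Cmax was unknown.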

[1] = second compound 0.0316 µM, first compound 0.00316 µM
[2] = second compound 0.0316 µM, first compound 0.01 µM
[3] = second compound 0.0316 µM, first compound 0.0316 µM
[4] = second compound 0.0316 µM, first compound 0.1 µM
[5] = second compound 0.0316 µM, first compound 0.316 µM
[6] = second compound 0.0316 µM, first compound 1 µM
[7] = second compound 0.1 µM, first compound 0.00316 µM
[8] = second compound 0.1 µM, first compound 0.01 µM
[9] = second compound 0.1 µM, first compound 0.0316 µM
[10] = second compound 0.1 µM, first compound 0.1 µM
[11] = second compound 0.1 µM, first compound 0.316 µM
[12] = second compound 0.1 µM, first compound 1 µM
[13] = second compound 0.316 µM, first compound 0.00316 µM
[14] = second compound 0.316 µM, first compound 0.01 µM
[15] = second compound 0.316 µM, first compound 0.0316 µM
[16] = second compound 0.316 µM, first compound 0.1 µM
[17] = second compound 0.316 µM, first compound 0.316 µM
[18] = second compound 0.316 µM, first compound 1 µM
[19] = second compound 1 µM, first compound 0.00316 µM
[20] = second compound 1 µM, first compound 0.01 µM
[21] = second compound 1 µM, first compound 0.0316 µM
[22] = second compound 1 µM, first compound 0.1 µM
[23] = second compound 1 µM, first compound 0.316 µM
[24] = second compound 1 µM, first compound 1 µM
[25] = second compound 3.16 µM, first compound 0.00316 µM
[26] = second compound 3.16 µM, first compound 0.01 µM
[27] = second compound 3.16 µM, first compound 0.0316 µM
[28] = second compound 3.16 µM, first compound 0.1 µM
[29] = second compound 3.16 µM, first compound 0.316 µM
[30] = second compound 3.16 µM, first compound 1 µM
[31] = second compound 10 µM, first compound 0.00316 µM
[32] = second compound 10 µM, first compound 0.01 µM
[33] = second compound 10 µM, first compound 0.0316 µM
[34] = second compound 10 µM, first compound 0.1 µM
[35] = second compound 10 µM, first compound 0.316 µM
[36] = second compound 10 µM, first compound 1 µM
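Note: spheroids exposed to agents for 7 days before viability reading.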
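Throughout, for viability, T/C: percent of DMSO vehicle control viability so 100% = vehicle and 0% = no viable signal.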

SMILES: C=CCn1c(=O)c2cnc(Nc3ccc(N4CCN(C)CC4)cc3)nc2n1-c1cccc(C(C)(C)O)n1 + Cc1cccc(N(C)C(=O)C2C(O)CCN2c2nc(C)cc(C(F)(F)F)c2C#N)c1
- IC50 (second compound 0.0316 µM): > 1000 nM
- IC50 (second compound 0.1 µM): > 1000 nM
- IC50 (second compound 0.316 µM): > 1000 nM
- IC50 (second compound 1 µM): > 1000 nM
- IC50 (second compound 3.16 µM): > 1000 nM
- IC50 (second compound 10 µM): > 1000 nM
- viability, T/C [1]: 94.8%
- viability, T/C [2]: 91%
- viability, T/C [3]: 87.4%
- viability, T/C [4]: 86.9%
- viability, T/C [5]: 80.3%
- viability, T/C [6]: 73%
- viability, T/C [7]: 87.9%
- viability, T/C [8]: 90.2%
- viability, T/C [9]: 95.6%
- viability, T/C [10]: 83.9%
- viability, T/C [11]: 82.2%
- viability, T/C [12]: 68.7%
- viability, T/C [13]: 88.8%
- viability, T/C [14]: 91.4%
- viability, T/C [15]: 89.4%
- viability, T/C [16]: 82.7%
- viability, T/C [17]: 85.4%
- viability, T/C [18]: 69.8%
- viability, T/C [19]: 96.5%
- viability, T/C [20]: 85.2%
- viability, T/C [21]: 102%
- viability, T/C [22]: 84%
- viability, T/C [23]: 80.2%
- viability, T/C [24]: 67%
- viability, T/C [25]: 83.3%
- viability, T/C [26]: 107%
- viability, T/C [27]: 97.6%
- viability, T/C [28]: 99.2%
- viability, T/C [29]: 81.7%
- viability, T/C [30]: 65.4%
- viability, T/C [31]: 84.8%
- viability, T/C [32]: 89.3%
- viability, T/C [33]: 89.2%
- viability, T/C [34]: 86.7%
- viability, T/C [35]: 78.1%
- viability, T/C [36]: 73.9%

SMILES: C=CCn1c(=O)c2cnc(Nc3ccc(N4CCN(C)CC4)cc3)nc2n1-c1cccc(C(C)(C)O)n1 + Nc1ccc(C#CCN(C(=O)Cc2ncc(C(F)(F)F)cc2C(F)(F)F)c2ccc(F)cc2)nn1
- IC50 (second compound 0.0316 µM): > 1000 nM
- IC50 (second compound 0.1 µM): > 1000 nM
- IC50 (second compound 0.316 µM): > 1000 nM
- IC50 (second compound 1 µM): > 1000 nM
- IC50 (second compound 3.16 µM): > 1000 nM
- IC50 (second compound 10 µM): > 1000 nM
- viability, T/C [1]: 94.2%
- viability, T/C [2]: 100%
- viability, T/C [3]: 103%
- viability, T/C [4]: 93.2%
- viability, T/C [5]: 96.1%
- viability, T/C [6]: 78.2%
- viability, T/C [7]: 105%
- viability, T/C [8]: 98%
- viability, T/C [9]: 98.1%
- viability, T/C [10]: 99.1%
- viability, T/C [11]: 89%
- viability, T/C [12]: 68.8%
- viability, T/C [13]: 104%
- viability, T/C [14]: 113%
- viability, T/C [15]: 108%
- viability, T/C [16]: 106%
- viability, T/C [17]: 91%
- viability, T/C [18]: 71.9%
- viability, T/C [19]: 97.9%
- viability, T/C [20]: 94.7%
- viability, T/C [21]: 98.5%
- viability, T/C [22]: 105%
- viability, T/C [23]: 87.3%
- viability, T/C [24]: 74.7%
- viability, T/C [25]: 107%
- viability, T/C [26]: 115%
- viability, T/C [27]: 100%
- viability, T/C [28]: 112%
- viability, T/C [29]: 101%
- viability, T/C [30]: 82.8%
- viability, T/C [31]: 122%
- viability, T/C [32]: 126%
- viability, T/C [33]: 109%
- viability, T/C [34]: 104%
- viability, T/C [35]: 104%
- viability, T/C [36]: 81.7%

SMILES: CC[C@@]1(O)C(=O)OCc2c1cc1n(c2=O)Cc2cc3c(CN(C)C)c(O)ccc3nc2-1 + Nc1ccc(C#CCN(C(=O)Cc2ncc(C(F)(F)F)cc2C(F)(F)F)c2ccc(F)cc2)nn1
- IC50 (second compound 0.0316 µM): > 100 nM
- IC50 (second compound 0.1 µM): > 100 nM
- IC50 (second compound 0.316 µM): > 100 nM
- IC50 (second compound 1 µM): > 100 nM
- IC50 (second compound 3.16 µM): > 100 nM
- IC50 (second compound 10 µM): > 100 nM
- viability, T/C (second compound 0.0316 µM, first compound 0.000316 µM): 109%
- viability, T/C (second compound 0.0316 µM, first compound 0.001 µM): 106%
- viability, T/C [1]: 97.9%
- viability, T/C [2]: 91.8%
- viability, T/C [3]: 80.6%
- viability, T/C [4]: 65.9%
- viability, T/C (second compound 0.1 µM, first compound 0.000316 µM): 100%
- viability, T/C (second compound 0.1 µM, first compound 0.001 µM): 108%
- viability, T/C [7]: 95.3%
- viability, T/C [8]: 92.1%
- viability, T/C [9]: 84.4%
- viability, T/C [10]: 57.7%
- viability, T/C (second compound 0.316 µM, first compound 0.000316 µM): 99.7%
- viability, T/C (second compound 0.316 µM, first compound 0.001 µM): 105%
- viability, T/C [13]: 102%
- viability, T/C [14]: 90%
- viability, T/C [15]: 80.1%
- viability, T/C [16]: 73.2%
- viability, T/C (second compound 1 µM, first compound 0.000316 µM): 113%
- viability, T/C (second compound 1 µM, first compound 0.001 µM): 97.8%
- viability, T/C [19]: 109%
- viability, T/C [20]: 97%
- viability, T/C [21]: 82.6%
- viability, T/C [22]: 69.9%
- viability, T/C (second compound 3.16 µM, first compound 0.000316 µM): 102%
- viability, T/C (second compound 3.16 µM, first compound 0.001 µM): 105%
- viability, T/C [25]: 95.8%
- viability, T/C [26]: 108%
- viability, T/C [27]: 85.2%
- viability, T/C [28]: 62.2%
- viability, T/C (second compound 10 µM, first compound 0.000316 µM): 109%
- viability, T/C (second compound 10 µM, first compound 0.001 µM): 119%
- viability, T/C [31]: 123%
- viability, T/C [32]: 114%
- viability, T/C [33]: 108%
- viability, T/C [34]: 68%

SMILES: C#Cc1c(F)ccc2cc(O)cc(-c3ncc4c(N5CC6CCC(C5)N6)nc(OCC56CCCN5CC(F)C6)nc4c3F)c12 (stereo not drawn) + COC1C(OC(N)=O)C(O)C(Oc2ccc3c(O)c(NC(=O)c4ccc(O)c(CC=C(C)C)c4)c(=O)oc3c2C)OC1(C)C
- IC50 (second compound 0.0316 µM): < 31.6 nM
- IC50 (second compound 0.1 µM): < 31.6 nM
- IC50 (second compound 0.316 µM): < 31.6 nM
- IC50 (second compound 1 µM): < 31.6 nM
- IC50 (second compound 3.16 µM): < 31.6 nM
- IC50 (second compound 10 µM): < 31.6 nM
- viability, T/C [3]: 24.1%
- viability, T/C [4]: 22.1%
- viability, T/C [5]: 15.1%
- viability, T/C [6]: 14.3%
- viability, T/C (second compound 0.0316 µM, first compound 3.16 µM): 13.6%
- viability, T/C (second compound 0.0316 µM, first compound 10 µM): 14.2%
- viability, T/C [9]: 25.4%
- viability, T/C [10]: 21.3%
- viability, T/C [11]: 17%
- viability, T/C [12]: 11.4%
- viability, T/C (second compound 0.1 µM, first compound 3.16 µM): 12.7%
- viability, T/C (second compound 0.1 µM, first compound 10 µM): 11.7%
- viability, T/C [15]: 26.2%
- viability, T/C [16]: 18.8%
- viability, T/C [17]: 16.5%
- viability, T/C [18]: 12.8%
- viability, T/C (second compound 0.316 µM, first compound 3.16 µM): 13.2%
- viability, T/C (second compound 0.316 µM, first compound 10 µM): 11.3%
- viability, T/C [21]: 26.8%
- viability, T/C [22]: 22.6%
- viability, T/C [23]: 17.7%
- viability, T/C [24]: 13.2%
- viability, T/C (second compound 1 µM, first compound 3.16 µM): 11.9%
- viability, T/C (second compound 1 µM, first compound 10 µM): 12.4%
- viability, T/C [27]: 26.3%
- viability, T/C [28]: 19.6%
- viability, T/C [29]: 18.8%
- viability, T/C [30]: 13.7%
- viability, T/C (second compound 3.16 µM, first compound 3.16 µM): 12.4%
- viability, T/C (second compound 3.16 µM, first compound 10 µM): 12.2%
- viability, T/C [33]: 23.9%
- viability, T/C [34]: 22.3%
- viability, T/C [35]: 17.2%
- viability, T/C [36]: 14.2%
- viability, T/C (second compound 10 µM, first compound 3.16 µM): 13.8%
- viability, T/C (second compound 10 µM, first compound 10 µM): 12.7%
